This is an account of results in US20070207984A1, “Cyclohexylamino Benzene, Pyridine, and Pyridazine Derivatives” (priority 2006, published 2007).

The first experiment relates to PC-3 cell proliferation. Description: Cell proliferation assay (WST-1), PC-3 cells. In kind it is cell-based. Particulars: Homo sapiens, WST-1 optical density at 450 nm, growth vs DMSO (100%) and 10 μM Actinomycin D (0%), read-out: inhibitory activity against PC-3 cell proliferation (IC50 range). As for the experimental part:
A panel of cancer cell lines was obtained from the DCTP Tumor Repository, National Cancer Institute (Frederick, Md.) or ATCC (Rockville, Md.). Cell cultures were maintained in Hyclone RPMI 1640 medium (Logan, Utah) supplemented with 10% fetal bovine serum and 20 mM HEPES buffer, final pH 7.2, at 37° C. with a 5% CO2 atmosphere. Cultures were maintained at sub-confluent densities. Human umbilical vein endothelial cells (HUVEC) were purchased from Clonetics, a division of Cambrex (Walkersville, Md.). Cultures were established from cryopreserved stocks using Clonetics EGM-2 medium supplemented with 20 mM HEPES, final pH 7.2, at 37° C. with a 5% CO2 atmosphere.
For proliferation assays, cells were seeded with the appropriate medium into 96 well plates at 1,000-2,500 cells per well, depending on the cell line, and were incubated overnight. The following day, test compound, DMSO solution (negative control), or Actinomycin D (positive control) was added to the appropriate wells as 10× concentrated stocks prepared in phosphate buffered saline. The cell plates were then incubated for an additional 2-5 days, depending on the cell line, to allow proliferation to occur. To measure cell density, 50 μL of WST-1 solution (Roche Applied Science, IN) diluted 1:5 in phosphate buffered saline was added to each well, and the cells incubated for an additional 1-5 hrs., again depending on the cell line. Optical density was determined for each well at […] using a Tecan GeniosPro plate reader (RTP, NC). The percentage of cell growth was determined by comparing the cell growth in the presence of test compounds to the cells treated with DMSO vehicle (control, 100% growth) and cells treated with Actinomycin D (10 μM, 0% growth).
Immediately after the WST-1 determination, the medium was removed from the PC-3, NCI-H460 and HUVEC cell lines, and the plates stored at −80° C. Using these assay plates, relative amounts of DNA in each well were determined using the Cyquant DNA assay kit from […] (Eugene, Oreg.) following the manufacturer's directions. Results for each compound treatment were compared to DMSO vehicle control (100%) and 10 μM Actinomycin D treated cells (0%).
Several exemplary compounds useful in the methods of the invention are listed below.
In the case of `Cc1nn(-c2ccc(C(N)=O)c(NC3CCC(OC(=O)CCN)CC3)c2)c2c1C(=O)CC(C)(C)C2` (stereo not drawn), the IC50 is 500 to 5000 nM.

In the case of `CC1(C)CC(=O)c2c(C(F)(F)F)nn(-c3ccc(C(N)=O)c(NC4CCC(OC(=O)[C@@H](N)CCCCN)CC4)c3)c2C1` (stereo partly drawn), the IC50 is less than 500 nM.

As for `CC1(C)CC(=O)c2c(C(F)(F)F)nn(-c3ccc(C(N)=O)c(NC4CCC(OC(=O)CCNC(=O)[C@@H](N)CCCN)CC4)c3)c2C1` (stereo partly drawn), the IC50 was less than 500 nM.

As for `CC1(C)CC(=O)c2c(C(F)F)nn(-c3ccc(C(N)=O)c(N[C@H]4CC[C@H](O)CC4)c3)c2C1` [drawing 85], the IC50 is less than 500 nM.

Take `Cc1nn(-c2ccc(C(N)=O)c(NC3CCC(OC(=O)CCNC(=O)OC(C)(C)C)CC3)c2)c2c1C(=O)CC(C)(C)C2` (stereo not drawn) [drawing 88]: the IC50 was less than 500 nM.

On to `Cc1nn(-c2ccc(C#N)c(Br)c2)c2c1C(=O)CC(C)(C)C2` [drawing 89], for which the IC50 fell in the range of 5000 to 50000 nM.

For the next experiment, the system named is HSP-90 (heat shock protein 90). Description: Determination of affinity for HSP-90 (elution from purine affinity column). In kind it is binding. Also noted: key: A stands for very high; B for high; C for moderate. Particulars: purine affinity column loaded with organ tissue proteins; eluted with 20μM, 100 μM, and 500 μM of test compound; densitometry. The protocol: Affinity of test compounds for HSP-90 was determined as follows: Protein mixtures obtained from a variety of organ tissues (for example: spleen, liver and lung) were reversibly bound to a purine affinity column to capture purine-binding proteins, especially HSP-90. The purine affinity column was washed several times, and then eluted with 20μM, 100 μM, and 500 μM of test compound. Compounds of Formula I elute HP-90 in a dose-dependent manner vs. a control elution using dimethylsulfoxide. The elution profile of Formula I compounds was determined by 1-dimensional SDS polyacrylamide gel electrophoresis. Gels were stained with a fluorescent stain such as sypro ruby (a highly sensitive fluorescent protein stain that can readily detect less than 1 fmol of total protein, i.e., less than 0.04 ng for a 40 kDa protein) or silver nitrate. The gels were imaged using a standard flat bed gel imager and the amount of protein estimated by densitometry. The percent of HSP-90 protein eluted from the column at each concentration was determined and IC50 values were calculated from these estimates. The identity of a band containing HSP-90 was determined by protein sequencing using mass spectroscopy.
Compounds of the invention are inhibitors of HSP-90 (heat shock protein 90). Several exemplary compounds useful in the methods of the invention are listed below.
On to `CS(=O)(=O)O.Cc1nn(-c2ccc(C(N)=O)c(NC3CCC(OC(=O)CCN)CC3)c2)c2c1C(=O)CC(C)(C)C2` (stereo not drawn), for which the “relative binding affinity to HSP-90” value is on record as “A”.

For `CC1(C)CC(=O)c2c(C(F)(F)F)nn(-c3ccc(C(N)=O)c(NC4CCC(OC(=O)[C@@H](N)CCCCN)CC4)c3)c2C1.CS(=O)(=O)O.CS(=O)(=O)O` (stereo partly drawn), the “relative binding affinity to HSP-90” value is given as “A”.

In the case of `CC1(C)CC(=O)c2c(C(F)(F)F)nn(-c3ccc(C(N)=O)c(NC4CCC(OC(=O)CCNC(=O)[C@@H](N)CCCN)CC4)c3)c2C1.CS(=O)(=O)O.CS(=O)(=O)O` (stereo partly drawn), the “relative binding affinity to HSP-90” value is on record as “A”.

In the case of `CC1(C)CC(=O)c2c(C(F)F)nn(-c3ccc(C(N)=O)c(N[C@H]4CC[C@H](O)CC4)c3)c2C1` [drawing 91], the “relative binding affinity to HSP-90” value is on record as “A”.

In the case of `Cc1nn(-c2ccc(C(N)=O)c(NC3CCC(OC(=O)CCNC(=O)OC(C)(C)C)CC3)c2)c2c1C(=O)CC(C)(C)C2` (stereo not drawn) [drawing 94], the “relative binding affinity to HSP-90” value is recorded as “A”.

In the case of `Cc1nn(-c2ccc(C#N)c(Br)c2)c2c1C(=O)CC(C)(C)C2` [drawing 95], the “relative binding affinity to HSP-90” value is “C”.
